Assay results reported in patent publication US20100249161A1, “2- ( 2 -HYDROXYPHENYL) -QUINAZOLIN-4-ONES USEFUL FOR TREATING OBESITY AND DIABETES” (priority 2006, published 2010).

melting point [°C] | SMILES
224 to 225 | Cc1c(Cl)cc(C(C)(C)C)c(O)c1-c1nc2ccc(F)cc2c(=O)[nH]1 [Example 2, 2-(3-tert-Butyl-5-chloro-2-hydroxy-6-methyl-phenyl)-6-fluoro-3H-quinazolin-4-one]
247 to 248 | Cc1c(F)cc(C(C)(C)C)c(O)c1-c1nc2ccc(F)cc2c(=O)[nH]1 [Example 3, 2-(-3-tert-Butyl-5-fluoro-2-hydroxy-6-methyl-phenyl)-6-fluoro-3H-quinazolin-4-one]
297 to 298 | Cc1c(Cl)cc(C(C)(C)C)c(O)c1-c1nc2ccc(S(=O)(=O)C(F)(F)F)cc2c(=O)[nH]1 [Example 4, 2-(3-tert-Butyl-5-chloro-2-hydroxy-6-methyl-phenyl)-6-trifluoromethanesulfonyl-3H-quinazolin-4-one]
257 to 258 | Cc1c(F)cc(C(C)(C)C)c(O)c1-c1nc2ccc(S(=O)(=O)C(F)(F)F)cc2c(=O)[nH]1 [Example 6, 2-(3-tert-Butyl-5-fluoro-2-hydroxy-6-methyl-phenyl)-6-trifluoromethanesulfonyl-3H-quinazolin-4-one]
235 to 237 | CC(C)(C)c1cc2c(c(-c3nc4ccc(S(=O)(=O)C(F)(F)F)cc4c(=O)[nH]3)c1O)CCO2 [Example 7, 2-(6-tert-Butyl-5-hydroxy-2,3-dihydro-benzofuran-4-yl)-6-trifluoromethanesulfonyl-3H-quinazolin-4-one]
285 to 286 | CCc1c(Cl)cc(C(C)(C)C)c(O)c1-c1nc2ccc(S(=O)(=O)C(F)(F)F)cc2c(=O)[nH]1 [Example 8, 2-(-3-tert-Butyl-5-chloro-2-hydroxy-6-ethyl-phenyl)-6-trifluoromethanesulfonyl-3H-quinazolin-4-one]
